Reference: patent US12522601B2, “1,3,4-oxadiazole derivative compounds as histone deacetylase 6 inhibitor, and the pharmaceutical composition comprising the same” (CHONG KUN DANG PHARMACEUTICAL CORP., priority 2020, dated 2026)
pIC50: −log10 of the molar value.

Assays:
human recombinant HDAC1 = molecular target: T1, human recombinant HDAC1 (Homo sapiens, UniProt Q13547); test: In vitro HDAC enzyme activity inhibition assay, HDAC1 (HDAC Fluorimetric Drug Discovery Kit); format: biochemical; details: human recombinant HDAC1, Fluor de Lys-SIRT1 substrate 10 μM, 30° C. for 60 minutes
T1 construct: purchased Enzo Life Sciences, Inc. BML-SE456
Description: (§1) In order to confirm the selectivity of the compounds represented by Chemical Formula I of the present invention to HDAC6 through HDAC1 and HDAC6 enzyme activity inhibition experiments, a comparison experiment was performed using the material that has already been developed as a control group.
(§2) HDAC enzyme activity was measured using the HDAC Fluorimetric Drug Discovery Kit (Enzo Life Sciences, Inc., BML-AK511, 516). For the HDAC1 enzyme activity test, human recombinant HDAC1 (BML-SE456) was used as an enzyme source and Fluor de Lys®-SIRT1 (BNL-KI177) was used as a substrate. After dispensing 5-fold diluted compounds into a 96-well plate, 0.3 μg of enzyme and 10 μM substrate were added to each well of the plate and allowed to react at 30° C. for 60 minutes. Next, Fluor de Lys® Developer II (BML-KI176) was added and reacted for 30 minutes to complete the reaction, and then the fluorescence values (Ex 360, Em 460) were measured using a multi-plate reader (Flexstation 3, Molecular Device). The HDAC6 enzymes were tested using human recombinant HDAC6 (382180) from Calbiochem Inc., according to the same protocol as the HDAC1 enzyme activity test method. With respect to the final result values, respective IC50 values were calculated using GraphPad Prism 4.0 program, and results thereof were summarized in Table 5 below.

human recombinant HDAC6 = molecular target: T2, human recombinant HDAC6 (Homo sapiens, UniProt Q9UBN7); test: In vitro HDAC enzyme activity inhibition assay, HDAC6 (HDAC Fluorimetric Drug Discovery Kit); format: biochemical; details: for HDAC6 Selectivity (fold): HDAC6 versus HDAC1; for pIC50: human recombinant HDAC6, same protocol as the HDAC1 test
T2 construct: purchased Calbiochem Inc. 382180
T2 sequence (Q9UBN7 1-1215): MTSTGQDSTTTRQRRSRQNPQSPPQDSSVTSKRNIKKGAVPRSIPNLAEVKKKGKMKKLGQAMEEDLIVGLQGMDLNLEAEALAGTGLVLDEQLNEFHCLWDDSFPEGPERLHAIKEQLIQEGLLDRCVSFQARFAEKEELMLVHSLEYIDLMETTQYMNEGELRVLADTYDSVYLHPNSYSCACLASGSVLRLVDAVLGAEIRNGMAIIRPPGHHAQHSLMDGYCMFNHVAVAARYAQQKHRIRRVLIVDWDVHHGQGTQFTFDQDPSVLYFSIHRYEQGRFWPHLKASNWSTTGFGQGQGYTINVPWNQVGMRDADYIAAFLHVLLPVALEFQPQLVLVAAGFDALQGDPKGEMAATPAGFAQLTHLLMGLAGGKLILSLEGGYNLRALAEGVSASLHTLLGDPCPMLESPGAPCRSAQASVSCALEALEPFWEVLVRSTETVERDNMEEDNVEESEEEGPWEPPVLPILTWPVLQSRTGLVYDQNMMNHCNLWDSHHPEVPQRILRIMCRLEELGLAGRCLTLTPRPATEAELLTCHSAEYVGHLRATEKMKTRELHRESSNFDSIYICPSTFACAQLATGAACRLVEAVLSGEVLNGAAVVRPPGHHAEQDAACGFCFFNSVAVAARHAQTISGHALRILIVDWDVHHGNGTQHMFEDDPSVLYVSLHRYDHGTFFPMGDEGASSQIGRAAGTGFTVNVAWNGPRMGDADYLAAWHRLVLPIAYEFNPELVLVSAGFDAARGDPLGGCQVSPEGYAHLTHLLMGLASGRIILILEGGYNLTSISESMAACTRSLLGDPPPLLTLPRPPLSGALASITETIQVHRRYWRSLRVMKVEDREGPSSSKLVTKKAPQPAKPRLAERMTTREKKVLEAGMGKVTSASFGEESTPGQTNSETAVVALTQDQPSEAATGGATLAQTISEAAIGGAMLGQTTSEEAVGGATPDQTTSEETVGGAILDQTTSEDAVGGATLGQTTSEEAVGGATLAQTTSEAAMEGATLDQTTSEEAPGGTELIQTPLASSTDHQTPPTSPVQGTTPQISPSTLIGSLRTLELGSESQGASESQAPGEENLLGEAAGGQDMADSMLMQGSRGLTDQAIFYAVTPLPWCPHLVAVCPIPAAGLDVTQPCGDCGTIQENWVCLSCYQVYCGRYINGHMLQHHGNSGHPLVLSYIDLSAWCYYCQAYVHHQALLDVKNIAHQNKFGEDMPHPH
Description: as §1, §2

T1 sequence (Q13547 whole entry): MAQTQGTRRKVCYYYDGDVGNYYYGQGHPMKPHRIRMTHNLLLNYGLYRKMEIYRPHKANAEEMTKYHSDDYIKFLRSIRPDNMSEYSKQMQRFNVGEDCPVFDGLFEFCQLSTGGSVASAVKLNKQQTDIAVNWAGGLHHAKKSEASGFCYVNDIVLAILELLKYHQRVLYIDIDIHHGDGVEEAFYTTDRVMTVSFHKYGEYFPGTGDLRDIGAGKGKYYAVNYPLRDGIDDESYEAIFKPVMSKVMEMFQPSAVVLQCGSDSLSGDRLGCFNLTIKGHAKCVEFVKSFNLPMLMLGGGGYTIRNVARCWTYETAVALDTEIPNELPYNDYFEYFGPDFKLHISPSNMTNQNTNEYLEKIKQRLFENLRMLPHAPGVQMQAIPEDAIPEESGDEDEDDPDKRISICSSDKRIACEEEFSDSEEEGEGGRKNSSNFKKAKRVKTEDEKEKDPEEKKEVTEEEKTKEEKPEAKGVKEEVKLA

Compound | pIC50 (human recombinant HDAC1) | HDAC6 Selectivity (fold) (human recombinant HDAC6) | pIC50 (human recombinant HDAC6)
CC(=O)N1CCN(C(=O)N(Cc2cn3ccc(-c4nnc(C(F)F)o4)cc3n2)c2ccccc2)CC1 [Compound 4040, 4-acetyl-N-((7-(5-(difluoromethyl)-1,3,4-oxadiazol-2-yl)imidazo[1,2-a]pyridin-2-yl)methyl)-N-phenylpiperazine-1-carboxamide] | < 4.30 | 421 fold | 6.93
CCC(=O)N1CCN(C(=O)N(Cc2cn3ccc(-c4nnc(C(F)F)o4)cc3n2)c2ccccc2)CC1 [Compound 4041, N-((7-(5-(difluoromethyl)-1,3,4-oxadiazol-2-yl)imidazo[1,2-a]pyridin-2-yl)methyl)-N-phenyl-4-propionylpiperazine-1-carboxamide] | < 4.30 | 193 fold | 6.59
O=C(CO)N1CCN(C(=O)N(Cc2cn3ccc(-c4nnc(C(F)F)o4)cc3n2)c2ccccc2)CC1 [Compound 4042, N-((7-(5-(difluoromethyl)-1,3,4-oxadiazol-2-yl)imidazo[1,2-a]pyridin-2-yl)methyl)-4-(2-hydroxyacetyl)-N-phenylpiperazine-1-carboxamide] | < 4.30 | 197 fold | 6.59
O=C(C1CCC1)N1CCN(C(=O)N(Cc2cn3ccc(-c4nnc(C(F)F)o4)cc3n2)c2ccccc2)CC1 [Compound 4043, 4-(cyclobutanecarbonyl)-N-((7-(5-(difluoromethyl)-1,3,4-oxadiazol-2-yl)imidazo[1,2-a]pyridine-2-yl)methyl)-N-phenylpiperazine-1-carboxamide] | < 4.30 | 302 fold | 6.78
O=C(N1CCN(C(=O)C(F)(F)F)CC1)N(Cc1cn2ccc(-c3nnc(C(F)F)o3)cc2n1)c1ccccc1 [Compound 4044, N-((7-(5-(difluoromethyl)-1,3,4-oxadiazol-2-yl)imidazo[1,2-a]pyridin-2-yl)methyl)-N-phenyl-4-(2,2,2-trifluoroacetyl)piperazine-1-carboxamide] | < 4.30 | 384 fold | 6.89
CS(=O)(=O)N1CCN(C(=O)N(Cc2cn3ccc(-c4nnc(C(F)F)o4)cc3n2)c2ccccc2)CC1 [Compound 4045, N-((7-(5-(difluoromethyl)-1,3,4-oxadiazol-2-yl)imidazo[1,2-a]pyridin-2-yl)methyl)-4-(methylsulfonyl)-N-phenylpiperazine-1-carboxamide] | < 4.30 | 392 fold | 6.89
COC(=O)N1CCN(C(=O)N(Cc2cn3ccc(-c4nnc(C(F)F)o4)cc3n2)c2ccccc2)CC1 [Compound 4046, methyl 4-(((7-(5-(difluoromethyl)-1,3,4-oxadiazol-2-yl)imidazo[1,2-a]pyridin-2-yl)methyl)(phenyl)carbamoyl)piperazine-1-carboxylate] | < 4.30 | 400 fold | 6.90
CN(C)C(=O)N1CCN(C(=O)N(Cc2cn3ccc(-c4nnc(C(F)F)o4)cc3n2)c2ccccc2)CC1 [Compound 4047, N1-((7-(5-(difluoromethyl)-1,3,4-oxadiazol-2-yl)imidazo[1,2-a]pyridin-2-yl)methyl)-N4,N4-dimethyl-N1-phenylpiperazine-1,4-dicarboxamide] | < 4.30 | 400 fold | 6.90
O=C(N1CCN(c2ccccn2)CC1)N(Cc1cn2ccc(-c3nnc(C(F)F)o3)cc2n1)c1ccccc1 [Compound 4048, N-((7-(5-(difluoromethyl)-1,3,4-oxadiazol-2-yl)imidazo[1,2-a]pyridin-2-yl)methyl)-N-phenyl-4-(pyridin-2-yl)piperazine-1-carboxamide] | < 4.30 | 203 fold | 6.61
O=C(N1CCN(c2ncccn2)CC1)N(Cc1cn2ccc(-c3nnc(C(F)F)o3)cc2n1)c1ccccc1 [Compound 4049, N-((7-(5-(difluoromethyl)-1,3,4-oxadiazol-2-yl)imidazo[1,2-a]pyridin-2-yl)methyl)-N-phenyl-4-(pyrimidin-2-yl)piperazine-1-carboxamide] | < 4.30 | 539 fold | 7.03
CN1CCN(C(=O)N(Cc2cn3ccc(-c4nnc(C(F)F)o4)cc3n2)c2cccc(F)c2)CC1 [Compound 4083, N-((7-(5-(difluoromethyl)-1,3,4-oxadiazol-2-yl)imidazo[1,2-a]pyridin-2-yl)methyl)-N-(3-fluorophenyl)-4-methylpiperazine-1-carboxamide] | < 4.30 | 108 fold | 6.33
CCN1CCN(C(=O)N(Cc2cn3ccc(-c4nnc(C(F)F)o4)cc3n2)c2cccc(F)c2)CC1 [Compound 4084, N-((7-(5-(difluoromethyl)-1,3,4-oxadiazol-2-yl)imidazo[1,2-a]pyridin-2-yl)methyl)-4-ethyl-N-(3-fluorophenyl)piperazine-1-carboxamide] | < 4.30 | 183 fold | 6.56
CC(C)N1CCN(C(=O)N(Cc2cn3ccc(-c4nnc(C(F)F)o4)cc3n2)c2cccc(F)c2)CC1 [Compound 4085, N-((7-(5-(difluoromethyl)-1,3,4-oxadiazol-2-yl)imidazo[1,2-a]pyridin-2-yl)methyl)-N-(3-fluorophenyl)-4-isopropylpiperazine-1-carboxamide] | < 4.30 | 233 fold | 6.67
CC(CO)N1CCN(C(=O)N(Cc2cn3ccc(-c4nnc(C(F)F)o4)cc3n2)c2cccc(F)c2)CC1 (stereo not drawn) [Compound 4086, N-((7-(5-(difluoromethyl)-1,3,4-oxadiazol-2-yl)imidazo[1,2-a]pyridin-2-yl)methyl)-N-(3-fluorophenyl)-4-(1-hydroxypropan-2-yl)piperazine-1-carboxamide] | < 4.30 | 249 fold | 6.70
O=C(N1CCN(C2CCC2)CC1)N(Cc1cn2ccc(-c3nnc(C(F)F)o3)cc2n1)c1cccc(F)c1 [Compound 4087, 4-cyclobutyl-N-((7-(5-(difluoromethyl)-1,3,4-oxadiazol-2-yl)imidazo[1,2-a]pyridin-2-yl)methyl)-N-(3-fluorophenyl)piperazine-1-carboxamide] | < 4.30 | 214 fold | 6.63
O=C(N1CCN(C2COC2)CC1)N(Cc1cn2ccc(-c3nnc(C(F)F)o3)cc2n1)c1cccc(F)c1 [Compound 4088, N-((7-(5-(difluoromethyl)-1,3,4-oxadiazol-2-yl)imidazo[1,2-a]pyridin-2-yl)methyl)-N-(3-fluorophenyl)-4-(oxetan-3-yl)piperazine-1-carboxamide] | < 4.30 | 156 fold | 6.49
O=C(N1CCN(C2CCCCC2)CC1)N(Cc1cn2ccc(-c3nnc(C(F)F)o3)cc2n1)c1cccc(F)c1 [Compound 4089, 4-cyclohexyl-N-((7-(5-(difluoromethyl)-1,3,4-oxadiazol-2-yl)imidazo[1,2-a]pyridin-2-yl)methyl)-N-(3-fluorophenyl)piperazine-1-carboxamide] | < 4.30 | 113 fold | 6.35
